# Reference: patent publication US10299475B2, “Pesticide” (ISHIHARA SANGYO KAISHA, LTD., priority 2013, dated 2019)
# System: Haemaphysalis longicornis (larvae)
# Test: Test for examining effect on Haemaphysalis longicornis (larvae), coated vial contact test
# Type: in vivo
# Settings: 100 ppm solution coated on plastic vial, 20 larvae, 24 hours after contact, 25° C., constant dark, relative humidity 80-100%
# Text: Test for Examining Effect on Haemaphysalis longicornis (larvae)
row,SMILES,mortality at 100 ppm
1,"CC(C)CNC(=O)c1ccc(CCOc2ccc(Cl)c(I)c2)cc1 [1-326, N-isobutyl-4-(2-(4-chloro-3-iodophenoxy)ethyl)benzamide]",≥ 90%
2,"CC(C)CNC(=O)c1ccc(CCOc2cccc(OC(F)(F)F)c2)cc1 [1-24, N-isobutyl-4-(2-(3-(trifluoromethoxy)phenoxy)ethyl)benzamide]",≥ 90%
3,"CC(C)CNC(=O)c1ccc(CCOc2ccc(OC(F)(F)F)cc2)cc1 [1-25, N-isobutyl-4-(2-(4-(trifluoromethoxy)phenoxy)ethyl)benzamide]",≥ 90%
4,"CC(C)CNC(=O)c1ccc(CCOc2cccc(-c3ccc(Cl)cc3Cl)c2)cc1 [4-187, N-isobutyl-4-(2-(3-(2,4-dichlorophenyl)phenoxy)ethyl)benzamide]",≥ 90%
5,"CC(C)CNC(=O)c1ccc(CCOc2ccc(F)c(-c3ccccc3)c2)cc1 [4-6, N-isobutyl-4-(2-(4-fluoro-3-phenylphenoxy)ethyl)benzamide]",≥ 90%
6,"CC(C)CNC(=O)c1ccc(CCOc2cccc(Br)c2)cc1 [1-9, N-isobutyl-4-(2-(3-bromophenoxy)ethyl)benzamide]",≥ 90%
7,"CC(C)CNC(=O)c1ccc(CCOc2ccc(Cl)c(-c3ccc(Cl)cc3)c2)cc1 [4-115, N-isobutyl-4-(2-(4-chloro-3-(4-chlorophenyl)phenoxy)ethyl)benzamide]",≥ 90%
